Test results as given in patent US20260028354A1, “TETRAHYDRONAPHTHALENE DERIVATIVES AS ESTROGEN RECEPTOR DEGRADERS” (REGENT OF THE UNIVERSITY OF MICHIGAN, priority 2022, published 2026).

Experiment: Western blot analysis for "B" compounds
Type: cell-based
Details: read-out: Traditional Western Degradation Potency (DC50)
Procedure, shortened: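 Target protein levels given as relative mean band intensity over GAPDH from scanned immunoblots. Lysates of treated cells in RIPA buffer, equalized by BCA, separated on 10% gels and transferred to PVDF.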

O=C1CCC(N2C(=O)c3cc4c(cc3C2=O)CN(CC(=O)N2CCC3(C2)CN(c2ccc([C@@H]5c6ccc(O)cc6CC[C@@H]5c5ccccc5)cc2)C3)C4)C(=O)N1 (mixture of isomers) [Compound B187, 2-(2,6-dioxopiperidin-3-yl)-6-(2-(2-(4-((1R,2S)-6-hydroxy-2-phenyl-1,2,3,4-tetrahydronaphthalen-1-yl)phenyl)-2,6-diazaspiro[3.4]octan-6-yl)-2-oxoethyl)-6,7-dihydropyrrolo[3,4-f]isoindole-1,3(2H,5H)-dione]
DC50: 10 to 100 nM

O=C1CCC(N2C(=O)c3cc4c(cc3C2=O)CN(C(=O)CN2CCC3(CC2)CCN(c2ccc([C@@H]5c6ccc(O)cc6CC[C@@H]5c5ccccc5)cc2)C3)C4)C(=O)N1 (mixture of isomers) [Compound B22, 2-(2,6-dioxopiperidin-3-yl)-6-(2-(2-(4-((1R,2S)-6-hydroxy-2-phenyl-1,2,3,4-tetrahydronaphthalen-1-yl)phenyl)-2,8-diazaspiro[4.5]decan-8-yl)acetyl)-6,7-dihydropyrrolo[3,4-f]isoindole-1,3(2H,5H)-dione]
DC50: > 100 nM

O=C1CCC(N2C(=O)c3cc4c(cc3C2=O)CN(C2CCN(C(=O)[C@H]3C[C@H](Oc5ccc([C@@H]6c7ccc(O)cc7CC[C@@H]6c6ccccc6)cc5)C3)CC2)C4)C(=O)N1 (stereo partly drawn) [Compound B285, 2-(2,6-dioxopiperidin-3-yl)-6-(1-((1R,3r)-3-(4-((1R,2S)-6-hydroxy-2-phenyl-1,2,3,4-tetrahydronaphthalen-1-yl)phenoxy)cyclobutane-1-carbonyl)piperidin-4-yl)-6,7-dihydropyrrolo[3,4-f]isoindole-1,3(2H,5H)-dione]
DC50: 10 to 100 nM

CN(C1CCC(CN2Cc3cc4c(cc3C2)C(=O)N(C2CCC(=O)NC2=O)C4=O)CC1)C1CCN(c2ccc([C@@H]3c4ccc(O)cc4CC[C@@H]3c3ccccc3)cc2)CC1 (stereo partly drawn) [Compound B75, 2-(2,6-dioxopiperidin-3-yl)-6-((4-((1-(4-((1R,2S)-6-hydroxy-2-phenyl-1,2,3,4-tetrahydronaphthalen-1-yl)phenyl)piperidin-4-yl)(methyl)amino)cyclohexyl)methyl)-6,7-dihydropyrrolo[3,4-f]isoindole-1,3(2H,5H)-dione]
DC50: > 100 nM

O=C1CCC(N2Cc3cc4c(cc3C2=O)CN(C(=O)C2CCC(CN3CC(Oc5ccc([C@@H]6c7ccc(O)cc7CC[C@@H]6c6ccccc6)cc5)C3)CC2)C4)C(=O)N1 (stereo partly drawn) [Compound B286, 3-(6-((1R,4r)-4-((3-(4-((1R,2S)-6-hydroxy-2-phenyl-1,2,3,4-tetrahydronaphthalen-1-yl)phenoxy)azetidin-1-yl)methyl)cyclohexane-1-carbonyl)-1-oxo-3,5,6,7-tetrahydropyrrolo[3,4-f]isoindol-2(1H)-yl)piperidine-2,6-dione]
DC50: > 100 nM

O=C1CCC(N2C(=O)c3cc4c(cc3C2=O)CN(CC(=O)N2CCC3(CC2)CN(C(=O)c2ccc([C@@H]5c6ccc(O)cc6CC[C@@H]5c5ccccc5)cc2)C3)C4)C(=O)N1 (stereo partly drawn) [Compound B291, 2-(2,6-dioxopiperidin-3-yl)-6-(2-(2-(4-((1R,2S)-6-hydroxy-2-phenyl-1,2,3,4-tetrahydronaphthalen-1-yl)benzoyl)-2,7-diazaspiro[3.5]nonan-7-yl)-2-oxoethyl)-6,7-dihydropyrrolo[3,4-f]isoindole-1,3(2H,5H)-dione]
DC50: > 100 nM

O=C1CCC(N2C(=O)c3cc4c(cc3C2=O)CN(CC(=O)N2CCC3(CC2)CCN(c2ccc([C@@H]5c6ccc(O)cc6CC[C@@H]5c5ccccc5)cc2)CC3)CC4)C(=O)N1 (stereo partly drawn) [Compound B195, 2-(2,6-dioxopiperidin-3-yl)-6-(2-(9-(4-((1R,2S)-6-hydroxy-2-phenyl-1,2,3,4-tetrahydronaphthalen-1-yl)phenyl)-3,9-diazaspiro[5.5]undecan-3-yl)-2-oxoethyl)-5,6,7,8-tetrahydro-1H-pyrrolo[3,4-g]isoquinoline-1,3(2H)-dione]
DC50: 10 to 100 nM

O=C1CCC(N2C(=O)c3cc4c(cc3C2=O)CN(C(=O)C2CCN(C3CCN(c5ccc([C@@H]6c7ccc(O)cc7CC[C@@H]6c6ccc(F)cc6)cc5)CC3)CC2)C4)C(=O)N1 (mixture of isomers) [Compound B6, 2-(2,6-dioxopiperidin-3-yl)-6-(1′-(4-((1R,2S)-2-(4-fluorophenyl)-6-hydroxy-1,2,3,4-tetrahydronaphthalen-1-yl)phenyl)-[1,4'-bipiperidine]-4-carbonyl)-6,7-dihydropyrrolo[3,4-f]isoindole-1,3(2H,5H)-dione]
DC50: < 10 nM

O=C1CCC(N2C(=O)c3cc4c(cc3C2=O)CN(Cc2ccc(N3CC(Oc5ccc([C@@H]6c7ccc(O)cc7CC[C@@H]6c6ccccc6)cc5)C3)nc2)C4)C(=O)N1 (stereo partly drawn) [Compound B91, 2-(2,6-dioxopiperidin-3-yl)-6-((6-(3-(4-((1R,2S)-6-hydroxy-2-phenyl-1,2,3,4-tetrahydronaphthalen-1-yl)phenoxy)azetidin-1-yl)pyridin-3-yl)methyl)-6,7-dihydropyrrolo[3,4-f]isoindole-1,3(2H,5H)-dione]
DC50: 10 to 100 nM

O=C1CCC(N2C(=O)c3cc4c(cc3C2=O)CN(CC2CCN(c3ccc([C@@H]5c6ccc(O)cc6CC[C@@H]5c5ccccc5)cc3)CC2)C4)C(=O)N1 (mixture of isomers) [Compound B2, 2-(2,6-dioxopiperidin-3-yl)-6-((1-(4-((1R,2S)-6-hydroxy-2-phenyl-1,2,3,4-tetrahydronaphthalen-1-yl)phenyl)piperidin-4-yl)methyl)-6,7-dihydropyrrolo[3,4-f]isoindole-1,3(2H,5H)-dione]
DC50: 10 to 100 nM

O=C1CCC(N2C(=O)c3cc4c(cc3C2=O)CN(C(=O)CN2CC3(CCN(c5ccc([C@@H]6c7ccc(O)cc7CC[C@@H]6c6ccccc6)cc5)CC3)C2)C4)C(=O)N1 (mixture of isomers) [Compound B17, 2-(2,6-dioxopiperidin-3-yl)-6-(2-(7-(4-((1R,2S)-6-hydroxy-2-phenyl-1,2,3,4-tetrahydronaphthalen-1-yl)phenyl)-2,7-diazaspiro[3.5]nonan-2-yl)acetyl)-6,7-dihydropyrrolo[3,4-f]isoindole-1,3(2H,5H)-dione]
DC50: 10 to 100 nM

O=C1CCC(N2C(=O)c3cc4c(cc3C2=O)CN(CC(=O)N2CCC3(CC2)CC(Oc2ccc([C@@H]5c6ccc(O)cc6CC[C@@H]5c5ccccc5)cc2)C3)C4)C(=O)N1 (stereo partly drawn) [Compound B275, 2-(2,6-dioxopiperidin-3-yl)-6-(2-(2-(4-((1R,2S)-6-hydroxy-2-phenyl-1,2,3,4-tetrahydronaphthalen-1-yl)phenoxy)-7-azaspiro[3.5]nonan-7-yl)-2-oxoethyl)-6,7-dihydropyrrolo[3,4-f]isoindole-1,3(2H,5H)-dione]
DC50: > 100 nM

O=C1CCC(N2C(=O)c3cc4c(cc3C2=O)CN(Cc2ccc(N3CC(Nc5ccc([C@@H]6c7ccc(O)cc7CC[C@@H]6c6ccccc6)cc5)C3)nc2)C4)C(=O)N1 (stereo partly drawn) [Compound B117, 2-(2,6-dioxopiperidin-3-yl)-6-((6-(3-((4-((1R,2S)-6-hydroxy-2-phenyl-1,2,3,4-tetrahydronaphthalen-1-yl)phenyl)amino)azetidin-1-yl)pyridin-3-yl)methyl)-6,7-dihydropyrrolo[3,4-f]isoindole-1,3(2H,5H)-dione]
DC50: > 100 nM

O=C1CCC(N2C(=O)c3cc4c(cc3C2=O)CN(CC(=O)N2CC3(CCC(Oc5ccc([C@@H]6c7ccc(O)cc7CC[C@@H]6c6ccccc6)cc5)CC3)C2)C4)C(=O)N1 (stereo partly drawn) [Compound B278, 2-(2,6-dioxopiperidin-3-yl)-6-(2-(7-(4-((1R,2S)-6-hydroxy-2-phenyl-1,2,3,4-tetrahydronaphthalen-1-yl)phenoxy)-2-azaspiro[3.5]nonan-2-yl)-2-oxoethyl)-6,7-dihydropyrrolo[3,4-f]isoindole-1,3(2H,5H)-dione]
DC50: > 100 nM

O=C1CCC(N2C(=O)c3cc4c(cc3C2=O)CN(CC(=O)N2CCC(Oc3ccc([C@@H]5c6ccc(O)cc6CC[C@@H]5c5ccccc5)cc3)CC2)C4)C(=O)N1 (stereo partly drawn) [Compound B284, 2-(2,6-dioxopiperidin-3-yl)-6-(2-(4-(4-((1R,2S)-6-hydroxy-2-phenyl-1,2,3,4-tetrahydronaphthalen-1-yl)phenoxy)piperidin-1-yl)-2-oxoethyl)-6,7-dihydropyrrolo[3,4-f]isoindole-1,3(2H,5H)-dione]
DC50: > 100 nM

O=C1CCC(N2C(=O)c3cc4c(cc3C2=O)CN(C(=O)CN2CC3(CCN(c5ccc([C@@H]6c7ccc(O)cc7CC[C@@H]6c6ccc(F)cc6)cc5)CC3)C2)C4)C(=O)N1 (mixture of isomers) [Compound B19, 2-(2,6-dioxopiperidin-3-yl)-6-(2-(7-(4-((1R,2S)-2-(4-fluorophenyl)-6-hydroxy-1,2,3,4-tetrahydronaphthalen-1-yl)phenyl)-2,7-diazaspiro[3.5]nonan-2-yl)acetyl)-6,7-dihydropyrrolo[3,4-f]isoindole-1,3(2H,5H)-dione]
DC50: 10 to 100 nM

O=C1CCC(N2C(=O)c3cc4c(cc3C2=O)CN(C2CC3CCC(C2)N3CC2CCN(c3ccc([C@@H]5c6ccc(O)cc6CC[C@@H]5c5ccccc5)cc3)CC2)C4)C(=O)N1 (stereo partly drawn) [Compound B292, 2-(2,6-dioxopiperidin-3-yl)-6-(8-((1-(4-((1R,2S)-6-hydroxy-2-phenyl-1,2,3,4-tetrahydronaphthalen-1-yl)phenyl)piperidin-4-yl)methyl)-8-azabicyclo[3.2.1]octan-3-yl)-6,7-dihydropyrrolo[3,4-f]isoindole-1,3(2H,5H)-dione]
DC50: > 100 nM

O=C1CCC(N2C(=O)c3cc4c(cc3C2=O)CN(CC(=O)N2CC3(CCN(c5ccc([C@H]6c7ccc(O)cc7CC[C@H]6c6ccccc6)cc5)CC3)C2)C4)C(=O)N1 (stereo partly drawn) [Compound B179, 2-(2,6-dioxopiperidin-3-yl)-6-(2-(7-(4-((1S,2R)-6-hydroxy-2-phenyl-1,2,3,4-tetrahydronaphthalen-1-yl)phenyl)-2,7-diazaspiro[3.5]nonan-2-yl)-2-oxoethyl)-6,7-dihydropyrrolo[3,4-f]isoindole-1,3(2H,5H)-dione]
DC50: > 100 nM

O=C1CCC(N2C(=O)c3cc4c(cc3C2=O)CN(C2CCC(CNC3CN(c5ccc([C@@H]6c7ccc(O)cc7CC[C@@H]6c6ccccc6)cc5)C3)CC2)C4)C(=O)N1 (stereo partly drawn) [Compound B181, 2-(2,6-dioxopiperidin-3-yl)-6-(4-(((1-(4-((1R,2S)-6-hydroxy-2-phenyl-1,2,3,4-tetrahydronaphthalen-1-yl)phenyl)azetidin-3-yl)amino)methyl)cyclohexyl)-6,7-dihydropyrrolo[3,4-f]isoindole-1,3(2H,5H)-dione]
DC50: > 100 nM
